In patent publication US20190315814A1, “LANTIBIOTIC VARIANTS AND USES THEREOF” (priority 2016, published 2019):
Converted amounts (≈) assume the structure as drawn. Read-outs that look alike come from different tables or passages of the source. Marks after values point to notes of the source that are not given here.

How the values were obtained:
[1] = tested on: Streptococcus pneumoniae (ATCC 700675); assay: MIC assay against Streptococcus pneumoniae; assay type: cell-based; conditions: ATCC700675, read-out: MIC S. pneumonia
[2] = tested on: VRE Enterococcus faecalis; assay: organism not typed
[3] = tested on: VRE Enterococcus faecalis
[4] = tested on: Eggerthella lenta (ATCC 27337); assay: microbe, parasite or virus in culture; conditions: ATCC27337, read-out: MIC E. lenta
VRE Enterococcus faecium [5] = assay: organism not typed; conditions: read-out: MIC VRE ATCC 700221, strain ATCC 700221
VRE Enterococcus faecium [6] = tested on: VRE Enterococcus faecium
[7] = simulated gi fluid
[8] = tested on: Clostridium scindens (ATCC 35704)
[9] = tested on: Eggerthella lenta (ATCC 27337)
[10] = tested on: Lactobacillus acidophilus (CCUG 4356)
[11] = tested on: Clostridium difficile UNT103-1; assay: Second non-cannulated Syrian hamster C. difficile infection model, oral gavage dose range-finding; assay type: in vivo, Golden Syrian hamsters
Method: (§1) Following the recovery phase, male Golden Syrian hamsters were inoculated with Clostridium difficile UNT103-1 (VA11, non epidemic (cdtB-, REA group J) Curtis Donskey, Cleveland VA Hospital, Cleveland, Ohio). On Day 1, at 24 hrs after infection, all animals received a single subcutaneous injection of clindamycin (10 mg/kg). Test article formulated at 3 to 5 different doses were administered three times per day (TID), starting on Day 2 at 18 hours after Clindamycin injection, for 5 consecutive days (Days 2 through 6), and followed until Day 22 to assess recurrence. Vancomycin (positive control) was administered once a day at 20 mg/kg on Days 2 through 6. Cecal spore counts and Toxins A and B were determined as described above.

[12] = tested on: Clostridium difficile UNT103-1; assay: Non-cannulated Syrian hamster C. difficile infection model, oral gavage; assay type: in vivo, Golden Syrian hamsters
Method: as §1, with “formulations” for “formulated at 3 to 5 different doses”, “above” for “above.”

in vitro = conditions: simulated gi fluid
Method: Assay incubation conditions included […] simulated gastric fluid (SGF, USP 39 Test Solution; 2 g/L NaCl, 7 mL/L glacial HCl, pH 1.4) containing 1.75 mg/mL Pepsin (3200-4500 U/mg) mixed with 7.5 μL of 10 mg/mL variant (or positive control, NH2-Met-Arg-Phe-Ala-OH, MRFA, CAS#67368-29-0) for a final concentration of 300 μg/ml variant in a microfuge tube. Samples were incubated at 37° C. and analyzed using HPLC or LC-MS for loss of substrate. The percent remaining, elimination rate constant (Ke), and in vitro protein half-lives were calculated. A control of SGF without enzyme was also run and analyzed in the same manner for each variant.

[13] = tested on: Peptostreptococcus anaerobius (ATCC 27337)
Staphylococcus aureus = assay: MIC assay against Staphylococcus aureus; assay type: cell-based
Pseudomonas aerigunosa = assay: MIC against Gram negative P. aeruginosa; assay type: cell-based, Pseudomonas aeruginosa
Method: A minimum inhibitory concentration (MIC) assessment against Pseudomonas aerigunosa (a Gram negative bacterium) was performed for single site variants in the broth dilution assay as described by the CLSI (CLSI document M07-A8). Samples and Ofloxacin control were dissolved and serially diluted in 100% DMSO and 4 μL was added per well to 96-well plate with 196 μL of Cation Adjusted Mueller Hinton II Broth seeded with P. aeruginosa. […] The assay plates were loosely wrapped in a plastic bag and incubated 20-24 hours at 36° C. (aerobic conditions) and then visually examined and scored positive (+) for inhibition of growth or turbidity or negative (−) for no effect upon growth or turbidity.

[14] = 35 mg/Kg oral gavage TID, limit of detection 0.8

CC1(C)S[C@@H]2[C@H](NC(=O)[C@H](N)c3ccccc3)C(=O)N2[C@H]1C(=O)O [Ampicillin]
MIC [1]: 1 µg/mL (≈ 2.86 µM)

CC(=O)NC[C@H]1CN(c2ccc(N3CCOCC3)c(F)c2)C(=O)O1 [Linezoid, Linezolid]
MIC ([2]; read-out: MIC VRE ATCC 51299): 2 µg/mL (≈ 5.93 µM) | MIC ([2]; read-out: MIC VRE ATCC 51575): 2 µg/mL (≈ 5.93 µM) | MIC ([2]; read-out: MIC VRE CCUG 47775): 2 µg/mL (≈ 5.93 µM) | MIC VRE ATCC 51575 ([3]; strain ATCC 51575, multi-site variants): 2 µg/mL (≈ 5.93 µM) | MIC [4]: 1 µg/mL (≈ 2.96 µM) | MIC (VRE Enterococcus faecium [5]; multi-site variants): 4 µg/mL (≈ 11.9 µM) | MIC (VRE Enterococcus faecium [5]; single site variants): 2 µg/mL (≈ 5.93 µM)

C=C1NC(=O)[C@H](Cc2c[nH]c3ccccc23)NC(=O)[C@H](NC(=O)[C@H](CCCCN)NC(=O)[C@@H](N)C(C)C)CSC[C@@H](C(=O)N[C@H]2C(=O)N3CCC[C@H]3C(=O)NCC(=O)N[C@H](C(=O)N[C@@H](C)C(=O)N[C@@H](CC(N)=O)C(=O)N/C(=C\C)C(=O)NCC(=O)N[C@@H]3CSC[C@@H]4NC(=O)[C@H](Cc5ccc(O)cc5)NC(=O)[C@@H](CS/C=C\NC4=O)NC(=O)[C@H](CC(N)=O)NC(=O)[C@H](Cc4ccccc4)NC3=O)CS[C@H]2C)NC(=O)[C@H](CC(C)C)NC1=O [F1V R13N]
MIC VRE ATCC 700221 (VRE Enterococcus faecium [6]): 16 µg/mL (≈ 7.36 µM) | half-life ([7]; FaSSIF + 1% pancreatin + 3 μg/ml trypsin + 3 μg/ml chymotrypsin half-life): > 12 h | half-life ([7]; FaSSIF only half-life): > 12 h | MIC C. scindens [8]: 4 µg/mL (≈ 1.84 µM) | MIC to H. Pylori without EDTA (Heliobacter pylori): 8 µg/mL (≈ 3.68 µM) | MIC to H. Pylori with 0.05M EDTA (Heliobacter pylori; with 0.05M EDTA): 8 µg/mL | MIC VRE ATCC 51575 ([3]; VRE): 32 µg/mL (≈ 14.7 µM) | MIC VRE CCUG 47775 ([3]; VRE): 32 µg/mL (≈ 14.7 µM) | MIC E. lenta [9]: 0.5 µg/mL (≈ 0.23 µM) | MIC L. acidophilus [10]: 0.5 µg/mL (≈ 0.23 µM) | Mean LOG10 CFU/mL of feces homogenates (cecal spore counts) at Day-22 ([11]; 2 mg/Kg oral gavage TID): 6.13 LOG10 CFU/mL | Toxin A level at Day-22 ([11]; 2 mg/Kg oral gavage TID): 578.5 ng/mL | Toxin B level at Day-22 ([11]; 2 mg/Kg oral gavage TID): 462.7 ng/mL | Percent Survival at Day-22 ([11]; 2 mg/Kg oral gavage TID Days 2-6): 0% | Mean LOG10 CFU/mL of feces homogenates (cecal spore counts) at Day-22 ([11]; 6 mg/Kg oral gavage TID): 4.27 LOG10 CFU/mL | Toxin A level at Day-22 ([11]; 6 mg/Kg oral gavage TID): 266.2 ng/mL | Toxin B level at Day-22 ([11]; 6 mg/Kg oral gavage TID): 238.1 ng/mL | Percent Survival at Day-22 ([11]; 6 mg/Kg oral gavage TID Days 2-6): 50% | Mean LOG10 CFU/mL of feces homogenates (cecal spore counts) at Day-22 ([11]; 20 mg/Kg oral gavage TID): 3.88 LOG10 CFU/mL | Toxin A level at Day-22 ([11]; 20 mg/Kg oral gavage TID): 74.2 ng/mL | Toxin B level at Day-22 ([11]; 20 mg/Kg oral gavage TID): 57.8 ng/mL | Percent Survival at Day-22 ([11]; 20 mg/Kg oral gavage TID Days 2-6): 66% | Percent Survival at Day-22 ([11]; 35 mg/Kg oral gavage TID Days 2-6): 100% | Toxin A level at Day-22 [11, 14]: 0.8/0.8** ng/mL | Toxin B level at Day-22 [11, 14]: 0.8/0.8** ng/mL | Mean LOG10 CFU/mL of feces homogenates (cecal spore counts) at Day-22 ([11]; 35 mg/Kg oral gavage TID, limit of detection 2.40): 2.40* LOG10 CFU/mL | Mean LOG10 CFU/mL of feces homogenates (cecal spore counts) at Day-22 ([11]; 60 mg/Kg oral gavage TID): 2.51 LOG10 CFU/mL | Toxin A level at Day-22 ([11]; 60 mg/Kg oral gavage TID): 7.3 ng/mL | Toxin B level at Day-22 ([11]; 60 mg/Kg oral gavage TID): 5.5 ng/mL | Percent Survival at Day-22 ([11]; 60 mg/Kg oral gavage TID Days 2-6): 83% | Efficacy compared with Vancomycin-treated animals at the same dose ([11]; end of the study at Day 21, ascending dose regimen, in words): superior efficacy | Efficacy compared with Vancomycin-treated animals ([12]; end of the study at Day 22, oral gavage, in words): equal or superior efficacy | Percent Survival at Day-22 ([12]; oral gavage TID Days 2-6, vancomycin 20 mg/kg once a day): 100% | Toxin A level at Day-22 ([12]; oral gavage, first value of A/B cell, limit of detection 0.8): 0.8/0.8** ng/mL | Mean LOG10 CFU/mL of feces homogenates (cecal spore counts) at Day-22 ([12]; oral gavage, limit of detection 2.40): 2.4* LOG10 CFU/mL | Toxin B level at Day-22 ([12]; oral gavage, second value of A/B cell, limit of detection 0.8): 0.8/0.8** ng/mL | half-life (in vitro): > 24 h | MIC P. anaerobius [13]: 0.25 µg/mL (≈ 0.115 µM)

Gentamicin
MIC S. aureus ATCC 19636 (Staphylococcus aureus; strain ATCC 19636): 0.125 µg/mL | MIC S. aureus ATCC 29213 (Staphylococcus aureus; strain ATCC 29213): 0.25 µg/mL | MIC SS. aureus ATCC 33591 (Staphylococcus aureus; strain ATCC 33591): 1 µg/mL | MIC S. aureus BAA-1717 (Staphylococcus aureus; strain BAA-1717): 0.25 µg/mL

CC1COc2c(N3CCN(C)CC3)c(F)cc3c(=O)c(C(=O)O)cn1c23 (stereo not drawn) [Ofloxacin]
MIC (Pseudomonas aerigunosa): 1 µg/mL (≈ 2.77 µM)
